The test system of data set [1] is RIPK1 ubiquitination and IκBα degradation in THP-1 cells. In words: TUBE purification and immunoblot, TNF-stimulated THP-1 cells. Type of data set: cell-based, human. The following applies: TNF treatment. The procedure:
(§1) Figure 5 Inhibition of NOD2-Dependent Ubiquitination and Signaling (A–C) THP-1 cells were pre-treated with kinase inhibitors or DMSO for 30 min and stimulated with 200 ng/ml L18-MDP (A, B) or TNF (C) as indicated. At the indicated time points, cells were lysed and ubiquitinated proteins were isolated using TUBE reagent. The isolated ubiquitinated proteins and input material were analyzed by immunoblotting. See also Figure S6.
(§2) The ubiquitin conjugates were purified using GST-Tandem Ubiquitin Binding Entities (TUBE; [Fiil et al., 2013]). In brief, treated THP-1 cells (6–10 × 10^6) were washed with PBS and lysed in 400 μl of ice-cold lysis buffer containing TUBE on ice for 30 min. Cleared lysates were incubated with Glutathione Sepharose 4B resin (Amersham) with agitation at 4°C overnight. The beads were washed four times with PBS-Tween (0.1%) and the bound proteins were released by heating the beads in reducing SDS sample buffer. The samples were resolved on pre-cast gradient gels (NuPage; Life Technologies) in MOPS running buffer and subjected to immunoblotting.

The test system of data set [2] is phospho-Ser176-RIPK2 (p-RIPK2) in NOD2-expressing HEK293 cells. In words: Western blot of phospho-Ser176-RIPK2 in HEKBlue cells after L18-MDP.
Data set [3] has as its system TNF production by LPS stimulation in primary human monocytes. The following applies: 200 ng/ml LPS.
The subject of data set [4] is RIPK2 ubiquitination in THP-1 cells. As to the kind of experiment: TUBE purification of ubiquitin conjugates, L18-MDP-stimulated THP-1 cells. The following applies: 200 ng/ml L18-MDP.
For data set [5], the system named is NF-κB activation in HEKBlue cells expressing NOD2. As to the kind of experiment: HEKBlue NF-κB-SEAP reporter activation assay, L18-MDP stimulation. As to conditions: Homo sapiens, HEK-Blue, 8 h, read-out: NFκB activity EC50.
Details of data set [6]: method as in Cortes et al., 2013. As to conditions: clinical use; ref Cortes et al., 2013; cited from earlier work.
The test system of data set [7] is IκBα degradation in THP-1 cells. As to the kind of experiment: Immunoblot of IκBα in L18-MDP-stimulated THP-1 cells. In kind it is cell-based, human. As to conditions: 100 nM pre-treatment, 200 ng/ml L18-MDP. As for the experimental part:
as §1, §2

In a further data set the target is NOD2-RIPK2 interaction (Homo sapiens, UniProt O43353). As to the kind of experiment: HA-immunoprecipitation of RIPK2 with inducible HA-NOD2 in U2OS cells. The following applies: 100 nM, 24 hr.
NOD2-RIPK2 interaction, sequence (O43353 whole entry): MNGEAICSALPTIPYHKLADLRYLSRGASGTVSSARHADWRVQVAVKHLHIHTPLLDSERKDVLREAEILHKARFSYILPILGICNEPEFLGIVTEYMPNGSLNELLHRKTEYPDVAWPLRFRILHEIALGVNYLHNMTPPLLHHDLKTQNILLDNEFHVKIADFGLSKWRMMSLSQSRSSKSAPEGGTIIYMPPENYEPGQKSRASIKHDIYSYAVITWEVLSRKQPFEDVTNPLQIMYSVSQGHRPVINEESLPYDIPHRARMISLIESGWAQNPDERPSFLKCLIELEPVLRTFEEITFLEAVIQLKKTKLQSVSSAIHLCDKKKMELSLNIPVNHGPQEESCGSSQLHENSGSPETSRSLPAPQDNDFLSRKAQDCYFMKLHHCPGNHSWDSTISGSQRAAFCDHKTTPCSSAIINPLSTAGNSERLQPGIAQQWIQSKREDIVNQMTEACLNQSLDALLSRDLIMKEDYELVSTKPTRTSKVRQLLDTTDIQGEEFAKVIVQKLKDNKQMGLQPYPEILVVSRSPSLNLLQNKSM
NOD2-RIPK2 interaction, sequence (Q9HC29 whole entry partner): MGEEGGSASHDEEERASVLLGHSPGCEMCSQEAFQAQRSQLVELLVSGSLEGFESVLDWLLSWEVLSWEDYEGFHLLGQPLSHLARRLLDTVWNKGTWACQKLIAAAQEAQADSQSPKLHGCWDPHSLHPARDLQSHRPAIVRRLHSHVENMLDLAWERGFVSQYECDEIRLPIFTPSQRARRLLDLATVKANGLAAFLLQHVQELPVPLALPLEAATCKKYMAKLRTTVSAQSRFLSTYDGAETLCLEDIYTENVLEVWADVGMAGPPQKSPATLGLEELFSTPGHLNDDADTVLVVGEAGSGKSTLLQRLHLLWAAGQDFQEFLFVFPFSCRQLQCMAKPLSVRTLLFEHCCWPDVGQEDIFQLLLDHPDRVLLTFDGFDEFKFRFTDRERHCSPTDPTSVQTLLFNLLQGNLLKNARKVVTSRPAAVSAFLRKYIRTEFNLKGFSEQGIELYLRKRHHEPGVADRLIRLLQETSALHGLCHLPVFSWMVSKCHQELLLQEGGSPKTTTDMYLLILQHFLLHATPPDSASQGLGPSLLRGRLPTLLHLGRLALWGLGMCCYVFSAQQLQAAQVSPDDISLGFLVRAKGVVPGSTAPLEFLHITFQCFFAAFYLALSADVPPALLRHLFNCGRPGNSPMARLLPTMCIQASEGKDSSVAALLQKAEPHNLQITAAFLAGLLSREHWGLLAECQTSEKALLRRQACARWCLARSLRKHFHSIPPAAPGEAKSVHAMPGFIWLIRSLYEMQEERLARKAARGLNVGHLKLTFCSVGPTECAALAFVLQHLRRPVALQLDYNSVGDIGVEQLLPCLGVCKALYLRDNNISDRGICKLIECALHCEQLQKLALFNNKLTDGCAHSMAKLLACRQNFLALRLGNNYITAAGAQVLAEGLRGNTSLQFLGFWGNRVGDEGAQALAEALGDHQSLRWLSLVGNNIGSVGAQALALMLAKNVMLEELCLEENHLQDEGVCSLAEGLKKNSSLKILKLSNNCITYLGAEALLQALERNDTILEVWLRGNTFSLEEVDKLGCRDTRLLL
The subject of data set [8] is NOD2-dependent TNF production in primary human monocytes. As to the kind of experiment: Flow cytometry of intracellular TNF in primary human monocytes, L18-MDP. Type of data set: cell-based. As for the experimental part:
Experimental conditions are measured in 4–5 healthy donors. […] Gray background indicates range without inhibitors. See also Figure S7.

The next data set has as its target T1, RIPK1 (Homo sapiens, UniProt Q13546).
T1 sequence (Q13546 1-671): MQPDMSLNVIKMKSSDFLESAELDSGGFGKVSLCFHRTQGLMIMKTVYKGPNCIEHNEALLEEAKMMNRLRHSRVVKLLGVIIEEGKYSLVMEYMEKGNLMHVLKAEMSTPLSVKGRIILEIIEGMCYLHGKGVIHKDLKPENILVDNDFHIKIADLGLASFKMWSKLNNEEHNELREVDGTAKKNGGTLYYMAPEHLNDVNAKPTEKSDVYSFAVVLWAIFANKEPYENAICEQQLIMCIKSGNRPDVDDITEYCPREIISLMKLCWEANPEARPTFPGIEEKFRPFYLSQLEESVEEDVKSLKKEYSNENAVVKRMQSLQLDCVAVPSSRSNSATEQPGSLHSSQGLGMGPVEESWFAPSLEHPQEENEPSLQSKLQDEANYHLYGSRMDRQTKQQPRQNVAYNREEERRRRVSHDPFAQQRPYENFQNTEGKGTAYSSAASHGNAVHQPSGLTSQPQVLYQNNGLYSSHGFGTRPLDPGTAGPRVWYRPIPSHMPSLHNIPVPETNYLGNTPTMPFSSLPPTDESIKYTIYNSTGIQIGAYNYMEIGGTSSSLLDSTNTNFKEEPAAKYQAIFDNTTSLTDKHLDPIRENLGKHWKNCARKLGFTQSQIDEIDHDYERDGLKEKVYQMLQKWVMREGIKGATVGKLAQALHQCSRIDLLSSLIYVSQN
Details: method as in Najjar et al., 2015. The following applies: ref Najjar et al., 2015; cited from earlier work.

For data set [9], the system named is RAW264.7 macrophage cells. As to the kind of experiment: Cell viability and morphology, 24 hours. The following applies: 100 nM.
For another data set, the target named is RIPK3 (Homo sapiens, UniProt Q9Y572). Details: method as in Najjar et al., 2015. As to conditions: ref Najjar et al., 2015; cited from earlier work.
RIPK3, sequence (Q9Y572 whole entry, species assumed): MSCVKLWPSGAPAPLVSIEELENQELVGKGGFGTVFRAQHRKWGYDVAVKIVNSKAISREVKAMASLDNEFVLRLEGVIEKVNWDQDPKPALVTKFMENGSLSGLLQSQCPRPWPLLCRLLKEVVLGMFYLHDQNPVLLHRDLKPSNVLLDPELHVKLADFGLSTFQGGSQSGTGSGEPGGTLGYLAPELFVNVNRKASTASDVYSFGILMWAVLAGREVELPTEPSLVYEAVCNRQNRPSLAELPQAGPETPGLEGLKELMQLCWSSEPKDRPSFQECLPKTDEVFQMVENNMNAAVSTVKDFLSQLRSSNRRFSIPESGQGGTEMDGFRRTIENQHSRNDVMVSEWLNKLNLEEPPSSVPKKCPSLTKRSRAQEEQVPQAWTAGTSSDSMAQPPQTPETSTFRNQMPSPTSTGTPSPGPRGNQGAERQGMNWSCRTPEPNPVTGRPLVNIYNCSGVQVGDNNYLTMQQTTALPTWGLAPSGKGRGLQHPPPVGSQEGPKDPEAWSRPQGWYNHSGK
The test system of data set [10] is NF-κB activation in U2OS cells. In words: NF-κB dual luciferase reporter assay in U2OS cells overexpressing HA-NOD2. The following applies: 100 nM, 24 hr.

Where only a bound is given, the exact number is not on record here.

In the case of `Cc1ccc(C(=O)Nc2ccc(CN3CCN(C)CC3)c(C(F)(F)F)c2)cc1C#Cc1cnc2cccnn12` [ponatinib, 3-[2-(imidazo[1,2-b]pyridazin-3-yl)ethynyl]-4-methyl-N-{4-[(4-methylpiperazin-1-yl)methyl]-3-(trifluoromethyl)phenyl}benzamide], the “ubiquitination of RIPK1 or IκBα degradation” value in data set [1] is recorded as “no obvious effects”. Further, in [2], the “concentration completely blocking RIPK2 phosphorylation” value was 10 nM. Moreover, the “concentration attenuating TNF production by LPS stimulation” value in data set [3] was determined as 1 µM. In data set [4], the “concentration completely blocking RIPK2 ubiquitination” value is not below 25 nM; the “concentration reducing extent and length of ubiquitin-modified RIPK2” value fell in the range of 5 to 10 nM. For the same compound, in data set [5], the concentration giving a half-maximal response (EC50) was 0.8 nM. The adverse events result in data set [6] was “serious adverse events including vascular thrombosis”. In addition, in [7], the “downstream degradation of IκBα” value was “blocked”. The NOD2-RIPK2 interaction entry at NOD2-RIPK2 interaction is “stably maintained”. In addition, in data set [8], the “concentration completely abrogating NOD2-dependent TNF production” value came out at 10 nM. For the same compound, the “inhibition of RIPK1 kinase activity in necroptosis” value at RIPK1 is “efficient inhibitor”. Also, the “morphology of RAW cells” value in data set [9] was “caused rounding of RAW cells”. Moreover, the “inhibition of RIPK3 kinase activity in necroptosis” value on RIPK3 was “efficient inhibitor”. In [10], the NF-κB activation result was “completely disabled”.

The values are drawn from PMC4579271, “Inflammatory Signaling by NOD-RIPK2 Is Inhibited by Clinically Relevant Type II Kinase Inhibitors” (Chemistry & Biology, 2015).
